Data taken from US7091185B2, “Periodic antimicrobial peptides” (Dow Global Technologies Inc., priority 2003, dated 2006).
Like-named read-outs stand apart in the source and are kept apart here. Where no end group is shown, it is not given here.

Columns and labels:
[1] = system: S. aureus (methicillin resistant) ATCC 33591
Description: (§1) The bacteria tested were P. aeruginosa American Type Culture Collection Number (ATCC) 10145, E. coli ATCC 2592, and S. aureus (methicillin reseistant) ATTC 33591.
(§2) All experiments were compared to bacterial growth under optimal growth conditions (37° C., pH 7.0, absence of additional salt, growth media—referred to as standard growth conditions). In each plate, no growth control (media alone), positive growth control (bacteria with no test sample), positive antimicrobial controls (agents with known antimicrobial activity) and test compounds were tested.
(§3) The plates were incubated overnight, and the relative percent growth determined by optical density at 620 nm (OD620) using a […] […] PLUS™. […] All samples were tested in duplicate and each assay was repeated at least twice. […] IC50 and MIC are reported in μg/ml.

P. aeruginosa ATCC 10145 = details: ATCC 10145
Description: as §1, §2, §3

E. coli ATCC 2592 = details: ATCC 2592
Description: as §1, §2, §3

Cr. Neoformans 32045 = format: cell-based
Description: (§4) The MIC and IC50 values were determined by a broth microdilution method according to guidelines of the National Committee for Clinical Laboratory Standard as follows: In 96-well tissue culture plates, a fixed volume of bacterial suspension in 2× broth (as defined below) was added to the mixtures or individual compounds dispensed at concentrations varying from 1,000 to 1 μg/ml derived from serial two-fold dilutions in sterile water. The bacteria tested were P. aeruginosa American Type Culture Collection Number (ATCC) 10145, E. coli ATCC 2592, and S. aureus (methicillin reseistant) ATTC 33591.
(§5) The plates were incubated overnight, and the relative percent growth determined by optical density at 620 nm (OD620) using a TITERTEK MULTISKAN PLUS™. […] IC50 values were calculated using a sigmoidal curve fitting software program (GRAPHPAD,™ ISI Software,™ San Diego, Calif.). All samples were tested in duplicate and each assay was repeated at least twice. In the following table, KFAK is the repeat unit and multimers of KFAK were tested. IC50 and MIC are reported in μg/ml.
(§6) Because the antibacterial activity of the periodic peptides was so promising, further experiments were performed to determine if the periodic peptides also had antifungal activity. The experimental design was similar to that above, with accommodation made for fungal growth requirements, including the use of Sabouraud Dextrose Broth (SDB) and Sabouraud Dextrose Agar (SDA) slants.

C. albicans 10231 = format: cell-based; details: 10231
Description: as §4, §5, §6

Red blood cells (RBC) = assay: Red blood cell toxicity; format: cell-based
Red blood cell toxicity = format: cell-based; details: red blood cells (RBC)
Staph. aureus ATCC 6538 = assay: HMARQ biocidal kill activity; format: cell-based; details: Staph. aureus ATCC 6538 (gram+)
Description: (§7) Biocide efficacy protocols were improved by reducing sample size, organizing the test material into an array format, implementing most probable number (MPN) quantitation and using multi-channel liquid handling equipment. We call the new method “high-throughput microanalysis and rapid quantitation” or “HMARQ.” HMARQ is directly applicable to current industrial efficacy tests such as multi-cycle preservation challenge or time course disinfection tests.
(§8) HMARQ is performed in a high throughput plate, such as 96-well microtiter plates. Typical sample volumes have been reduced down to 200 to 300 μL, but can be reduced further if desired. In these samples, no more than 10% of the total volume will be composed of the biocide and organism solution, and all non-matrix additions are normalized for all samples.
(§9) The sample matrix is first inoculated with the desired concentration of microorganisms. Inoculated sample matrix is then added to the 96-well assay block containing the biocide(s) under study. Each sample block contains biocide treated samples and untreated control samples (lacking biocide). Once the samples are prepared, the entire block of samples is mixed by vortexing until each sample is homogenous. In general, the study starts once mixing is complete, and samples are removed as required for the analysis. When Kill Time testing (rate of biocide activity) is performed, the microorganisms are added after biocide addition to the samples, allowing for rapid mixing and analysis.
(§10) Bacterial concentration (CFU/mL) is determined using the most probable number method (MPN). The contaminated solution is serially diluted until the “no growth” endpoint is reached. The endpoint represents the MPN and is expressed in units of the bacterial concentration. A serial 1:10 dilution will yield a bacterial concentration resolution of 1 log and the log reduction is determined by comparing the concentration of organisms in a treated sample to the concentration of organisms in untreated samples. For example, if a sample requires four 1:10 dilutions before bacterial growth is lost then the MPN for bacterial concentration in the sample is less than or equal to 1×10^4 CFU/mL (1E4). […] This method of enumeration is generally applicable to all non-filamentous microorganisms.
(§11) Media included Tryptic Soy Broth (TSB) for bacteria and Sabouraud Dextrose Broth (SDB) for fungi. These are available commercially and prepared according to the manufacturers instructions. Indicator medium was TSB/R for bacteria and SDB/R for fungi. These were made by addition of 50 μM filter sterilized Resazurin to the sterilized and cooled medium. Tryptic Soy agar plates (TSA) and SDA slants were used to provide inoculant for bacterial and fungal cultures. The indicator dye appeared pink or white when bacterial growth was present.
(§12) Using the HMARQ test described above, periodic peptides were generated and tested for Kill Activity. In this experiment, a broader range of peptidezs were tested for activity. Units are expressed as ppm (μg/mL) needed for 3.5 log kill at 15 min or 24 hour and the results are shown below.

P. aeruginosa ATCC 15442 = assay: HMARQ biocidal kill activity; format: cell-based; details: P. aeruginosa ATCC 15442 (gram−)
Description: as §7, §8, §9, §10, §11, §12

HeLa cell line = assay: HeLa MTS cellular reduction toxicity assay; format: cell-based; details: for TX50: 24 h, MTS
Description: The RBC protocol was from Blondelle (2000) and is described generally as follows: The toxicity toward the HeLa cell line was determined using a MTS (3-(4-5-dimethylthiazol-2-yl)-5-(3carboxymethoxyphenyl)-2-(4-sulfophenyl)-2H-tetrazolium, sodium salt) cellular reduction assay. MTS (2 mg/mL) was prepared in Dulbecco PBS (pH 7.35), filtered, aliquoted and stored at minus 20° C. In 96 well flat bottomed plates, cell suspensions (250 μL of 6×10^4 cell/mL in each well) were incubated for 48 h at 37° C. (5% CO2 incubator). The peptides (50 μL) were then added to the cell monolayer (following aspiration of the media from each well and addition of 50 μL of Dulbecco's Modified Eagles Medium) at varying concentrations derived from serial 2-fold dilutions, and the plates incubated for 24 h at 37° C. (5% CO2 incubator). Proliferation was then determined by adding a solution of phenazine methosulfate (PMS: 0.92 mg/mL in DPBS) to MTS at a 1:20 ration just prior to the assay. Twenty microliters MTS-PMS solution were added to each well and the plates incubated for 1 h at 37° C. (5% CO2 incubator). The relative percent toxicity was determined by comparing the absorbance at 490 nm of each peptide to the absorbance of cells without peptide. The TX50 (concentration required for 50% toxicity) was calculated using a sigmoidal curve fitting software (Graphpad Prism).

[2] = RBCs, concentration required for 50% toxicity, read-out: TX50
[3] = S. aureus (methicillin resistant) 33591, gram+

Substance	IC50 ([1]; ATCC 33591)	MIC ([1]; ATCC 33591)	IC50 (P. aeruginosa ATCC 10145)	MIC (P. aeruginosa ATCC 10145)	IC50 (E. coli ATCC 2592)	MIC (E. coli ATCC 2592)	IC50 (Cr. Neoformans 32045)	MIC (Cr. Neoformans 32045)	IC50 (C. albicans 10231)	MIC (C. albicans 10231)	% kill at 250 μg/ml (Red blood cells (RBC))	HC50 at 24 h (Red blood cell toxicity)	ppm needed for 3.5 log kill at 15 min (Staph. aureus ATCC 6538)	ppm needed for 3.5 log kill at 24 hr (Staph. aureus ATCC 6538)	ppm needed for 3.5 log kill at 15 min (P. aeruginosa ATCC 15442)	ppm needed for 3.5 log kill at 24 hr (P. aeruginosa ATCC 15442)	% kill at 500 μg/ml (HeLa cell line)	TX50 (HeLa cell line)	HC50 at 24 h (Red blood cell toxicity; [2])	further results
AKKFAKKFAKKFAKKFAKKFAKKF [AKKF (6), AKKF AKKF AKKF AKKF AKKF AKKF]	41 µg/mL	125 to 250 µg/mL	21 µg/mL	25 µg/mL	8 µg/mL	16 to 32 µg/mL	11 µg/mL	16 to 32 µg/mL	225 µg/mL	250 to 500 µg/mL	100%	39 µg/mL	>500 ppm	125 ppm	>500 ppm	16 ppm	7.3%	33 µg/mL	–	–
FKAFKAFKAFKAFKAFKA [FKA (6), FKA FKA FKA FKA FKA FKA]	>500 µg/mL	>500 µg/mL	79 µg/mL	100 µg/mL	29 µg/mL	32 to 62 µg/mL	2.8 µg/mL	4 to 8 µg/mL	208 µg/mL	250 to 500 µg/mL	28%	–	4 ppm	500 ppm	8 ppm	8 ppm	110.8%	>500 µg/mL	496 µg/mL	–
FKAFKAFKAFKAFKAFKAFKA [FKA (7), FKA FKA FKA FKA FKA FKA FKA]	>500 µg/mL	>500 µg/mL	23 µg/mL	32 µg/mL	7 µg/mL	16 to 32 µg/mL	3.2 µg/mL	4 to 8 µg/mL	203 µg/mL	250 to 500 µg/mL	11%	–	500 ppm	500 ppm	125 ppm	63 ppm	103.3%	>500 µg/mL	> 500 µg/mL	–
H-FAKKFAKKFAKKFAKKFAKKFAKK-OH [FAKK (6), FAKK FAKK FAKK FAKK FAKK FAKK]	108 µg/mL	>250 µg/mL	21 µg/mL	62 µg/mL	11 µg/mL	17 to 32 µg/mL	7.6 µg/mL	16 to 32 µg/mL	110 µg/mL	125 to 250 µg/mL	7%	> 500 µg/mL	>500 ppm	250 ppm	>500 ppm	16 ppm	28.3%	359 µg/mL	–	–
H-KFAKKFAKKFAKKFAKKFAKKFAK-OH [KFAK (6), KFAK KFAK KFAK KFAK KFAK KFAK]	38.7 µg/mL	125 to 250 µg/mL	5.6 µg/mL	–	4 µg/mL	8 to 16 µg/mL	5.8 µg/mL	16 to 32 µg/mL	72 µg/mL	80 to 125 µg/mL	7.3%	> 250 µg/mL	–	–	–	–	30.5%	457.3 µg/mL	–	–
KFAKKFAKKFAKKFAK [KFAK (4), KFAK KFAK KFAK KFAK]	–	–	–	–	46 µg/mL	62 to 125 µg/mL	5.3 µg/mL	6.0 to 8.0 µg/mL	70 µg/mL	90 to 125 µg/mL	–	–	–	–	–	–	76%	>500 µg/mL	> 250 µg/mL	IC50 [1, 3]: >250 µg/mL; MIC [1, 3]: >250 µg/mL; % kill at 250 μg/ml (Red blood cells (RBC); RBCs, 250 μg/ml): 0.1%
KFAKKFAKKFAKKFAKKFAK [KFAK (5), KFAK KFAK KFAK KFAK KFAK]	–	–	–	–	6 µg/mL	16 to 32 µg/mL	5 µg/mL	8 to 16 µg/mL	66 µg/mL	90 to 125 µg/mL	–	–	–	–	–	–	89%	>500 µg/mL	> 250 µg/mL	IC50 [1, 3]: >250 µg/mL; MIC [1, 3]: >250 µg/mL; % kill at 250 μg/ml (Red blood cells (RBC); RBCs, 250 μg/ml): 4.1%
KFAKKFAKKFAKKFAKKFAKKFAKKFAK [KFAK (7), KFAK KFAK KFAK KFAK KFAK KFAK KFAK]	108.8 µg/mL	>250 µg/mL	–	–	8 µg/mL	32 to 62 µg/mL	–	32 to 62 µg/mL	82 µg/mL	100 to 125 µg/mL	13.7%	> 250 µg/mL	–	–	–	–	13.0%	204.1 µg/mL	–	TX50 (Red blood cells (RBC)): >250 µg/mL
